Measured values: patent US20130059888A1
Counter-ions that a name gives are not always drawn. Like-named read-outs stand apart in the source and are kept apart here.

Experiments:
[1] = system: Alzheimer-type dementia patients; settings: cited from earlier work; for Improving effect on the behavioral and psychological symptoms such as agitation: solely administered, Am. J. Geriatr. Psychiatry 2005
[2] = system: Alzheimer-type dementia patients
Method: Patient. […] After 11 months from the start of the donepezil hydrochloride administration, concomitant administration of sustained release tablets of sodium valproate (twice a day after breakfast and dinner with 200 mg tablet×2) was started.
Patient. […] After 35 months from the start of the donepezil hydrochloride administration, concomitant administration of sustained release tablets of sodium valproate (twice a day after breakfast and dinner with 200 mg tablet×2) was started.
Patient. […] Concomitant administration of sustained release tablets of sodium valproate (twice a day after breakfast and dinner with 200 mg tablet×2) was started 48 months after the start of the donepezil hydrochloride administration. […] Sustained release tablets of sodium valproate (200 mg tablet×3) were administered from eight months after the start of the concomitant administration.

Alzheimer-type dementia = settings: donepezil hydrochloride alone; cited from earlier work

| Structure (SMILES) | Improving effect on the behavioral and psychological symptoms such as agitation [1] | Problem behaviors ([2]; Example 1 patient, donepezil alone 5 mg once a day, two months from start) | Symptoms observed ([2]; Example 2 patient, donepezil alone 5 mg once a day, two months after start) | Symptoms observed ([2]; Example 2 patient, donepezil alone, four months after start) | Symptoms observed ([2]; Example 3 patient, donepezil alone 5 mg once a day, 15 months after start) | Symptoms observed ([2]; Example 3 patient, donepezil alone, 23 months after start) | Symptoms observed ([2]; Example 3 patient, donepezil alone, 25 months after start) | Symptoms observed ([2]; Example 4 patient, donepezil alone 5 mg once a day, two months after start) | Inspection findings ([2]; Example 5 patient, donepezil alone 5 mg once a day, 24 months after start) | Symptoms observed ([2]; Example 5 patient, donepezil alone, 41 months after start) | Cognitive disorder ([2]; Example 5 patient, donepezil alone, thirty nine months after start) | Duration of improving action against the cognitive symptoms (Alzheimer-type dementia) | Effect on the cognitive symptoms (Alzheimer-type dementia) | Side reactions ([1]; general statement on valproic acid and a salt thereof) |
| --- | --- | --- | --- | --- | --- | --- | --- | --- | --- | --- | --- | --- | --- | --- |
| CCCC(CCC)C(=O)[O-].[Na+] [sodium valproate] | no improving effect |  |  |  |  |  |  |  |  |  |  |  |  |  |
| COc1cc2c(cc1OC)C(=O)C(CC1CCN(Cc3ccccc3)CC1)C2 (stereo not drawn) [donepezil hydrochloride] |  | did not subside | symptoms of incontinentia and the like were observed | visual hallucination, incontinentia, aggressive attitude and the like were observed | dressing apraxia was observed | visual hallucination, soliloquy, emotional attitude, dressing apraxia, and stereotypy were observed | visual hallucination, delusion of persecution and the like | visual hallucination was not observed, but they spoke only their events in the old days and showed stereotypy | atrophy of the hippocampus was marked | refusal of oral administration of medicaments, soliloquy and dressing apraxia | advanced | about one year at the longest | certain effects for retarding onset or relieving of the cognitive symptoms |  |
| CCCC(CCC)C(=O)O [valproic acid] | does not exhibit any improving effect |  |  |  |  |  |  |  |  |  |  |  |  | little side reactions such as sleepiness |
